Results as given in patent US5455229A, “Method for minimizing and containing ischemic and reperfusion injury” (Eli Lilly and Company, priority 1992, dated 1995).

Assays:
dog = conditions: Diaz et al., Am. J. Cardiol. 40: 541-549, 1977; cited from earlier work
beagle dogs = experiment: In vivo assay: myocardial infarct size following coronary artery occlusion (1 hr) and reperfusion (5 hr) in anesthetized dogs; set-up: species or system dog; conditions: dogs infused with aprotinin, control dogs 37.9±5.4%, P<0.05
Description: Adult male beagle dogs weighing approximately 9-14 kg were anesthetized with pentobarbital sodium (30 mg/kg, i.v.). The tracheae were intubated, and the dogs were ventilated with room air delivered from a Harvard respirator (ventilation rate of 16 cycles/min, tidal volume, 25 ml/kg). Body temperature was maintained at 37-°38° C. with a heating pad. Catheters were placed in the left femoral artery and vein for measurement of phasic arterial blood pressure (Starham transducer, P23ID) and i.v. infusion of drug solutions, respectively. Mean arterial blood pressure was calculated as diastolic blood pressure plus 1/3 pulse pressure. Cardiac rate was monitored by a cardiotachometer that was triggered by the systolic pressure pulse, while the pressure rate product was monitored as an index of myocardial oxygen demand. […] Directly measured parameters were recorded continuously on a multichannel oscillograph (Beckman Instruments,Inc., Fullerton Calif.; model R611).
A left thoracotomy was performed at the fifth intercostal space, the heart was suspended in a pericardial cradle, and the left circumflex coronary artery (LCX) was isolated distal to its atrial branch and proximal to any major ventricular branches. Baseline circumflex coronary artery blood flow was measured using a calibrated flowprobe (Carolina Medical Electronics, 6 mm I.C.) connected to a Carolina flowmeter (model FM501). […]

## aprotinin [reference compound]
dog
  myocardial ischemic injury associated with coronary artery occlusion: has been shown to limit myocardial ischemic injury
Beagle dogs
  infarct size, % of the left ventricular mass at risk of necrosis: 24.8±2.4%
